One experiment deals with T1, human EHMT1 982-1266 (Homo sapiens, UniProt Q9H9B1).
T1 sequence (Q9H9B1 982-1266): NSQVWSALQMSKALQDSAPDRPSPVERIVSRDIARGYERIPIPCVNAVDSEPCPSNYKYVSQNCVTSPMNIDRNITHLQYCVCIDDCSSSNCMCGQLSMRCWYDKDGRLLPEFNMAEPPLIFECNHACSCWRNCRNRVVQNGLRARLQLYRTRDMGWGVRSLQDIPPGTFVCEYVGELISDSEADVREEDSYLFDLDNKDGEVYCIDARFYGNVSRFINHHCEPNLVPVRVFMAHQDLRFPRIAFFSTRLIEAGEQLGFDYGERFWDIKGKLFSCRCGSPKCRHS
The experiment can be described thus: EHMT1 enzyme assay on histone peptide substrate (3H-SAM SPA). The settings on record: EHMT1 IC50, recombinant human EHMT1 982-1266, histone peptide substrate.

Another experiment concerns the target T2, human EHMT2 913-1193 (Homo sapiens, UniProt Q96KQ7).
T2 sequence (Q96KQ7 913-1193): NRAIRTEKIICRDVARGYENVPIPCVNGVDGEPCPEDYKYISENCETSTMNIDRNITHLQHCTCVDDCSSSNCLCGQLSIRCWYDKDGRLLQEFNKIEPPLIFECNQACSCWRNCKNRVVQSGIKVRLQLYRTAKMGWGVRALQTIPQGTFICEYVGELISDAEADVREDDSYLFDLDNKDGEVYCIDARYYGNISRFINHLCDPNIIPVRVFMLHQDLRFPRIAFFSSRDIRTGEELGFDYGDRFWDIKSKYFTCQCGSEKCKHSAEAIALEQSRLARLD
The experiment can be described thus: EHMT2 enzyme assay on histone peptide substrate (3H-SAM SPA). The settings on record: EHMT2 IC50, recombinant human EHMT2 913-1193, histone peptide substrate.

IC50 data for 32 molecules are collected here from patent publication US20240368139A1, “NOVEL MODULATORS OF EHMT1 AND EHMT2 AND THERAPEUTIC USE THEREOF” (Tango Therapeutics, Inc., priority 2021, published 2024).

Consider `CNc1cc(C)nc(Nc2cc3c(c(C4=CCNC(CO)CC4)c2F)OCC3)n1` (single isomer, unassigned) [Compound 159-a], for which the IC50 at human EHMT1 982-1266 is 500 to 2000 nM; on human EHMT2 913-1193, above 2000 nM.
As to `CNc1cc(C)nc(Nc2cc3c(c(C4=CCNC(CO)CC4)c2F)OCC3)n1` (single isomer, unassigned) [Compound 159], the IC50 at human EHMT1 982-1266 is below 100 nM; at human EHMT2 913-1193, 100 to 500 nM.
Taken in the same sequence, the figures for `CNc1cc(C)nc(Nc2cc3c(c(C4=CCNC(C)CC4)c2Cl)OCCO3)n1` (single isomer, unassigned) [Compound 161-a] were 500 to 2000 nM and above 2000 nM.
Take `CNc1cc(C)nc(Nc2cc3c(c(C4=CCNC(C)CC4)c2Cl)OCCO3)n1` (single isomer, unassigned) [Compound 161]: the IC50 at human EHMT1 982-1266 and at human EHMT2 913-1193 was below 100 nM in each case.
Turning to `CNc1cc(C)nc(Nc2cc3c(c(C4=CCNC(C)CC4)c2F)OCCC3)n1` (single isomer, unassigned) [Compound 162], the IC50 on human EHMT1 982-1266 and at human EHMT2 913-1193 was 500 to 2000 nM in each case.
On to `CNc1cc(C)nc(Nc2cc3c(c(C4=CCNC(C)CC4)c2F)OCCO3)n1` (single isomer, unassigned) [Compound 163-a], for which the IC50 on human EHMT1 982-1266 is 500 to 2000 nM; at human EHMT2 913-1193, above 2000 nM.
The matching figures for `CNc1cc(C)nc(Nc2cc3c(c(C4=CCNC(C)CC4)c2F)OCCO3)n1` (single isomer, unassigned) [Compound 163]: below 100 nM and below 100 nM.
Taken in the same sequence, the figures for `CNc1cc(C)nc(Nc2cc3c(c(C4=CCNC(C)CC4)c2F)OCCC3)n1` (single isomer, unassigned) [Compound 164] were below 100 nM and below 100 nM.
The matching figures for `CNc1cc(C)nc(Nc2cc3c(c(C4=CCNCC(F)C4)c2F)OCC3)n1` (single isomer, unassigned) [Compound 168]: 100 to 500 nM and 100 to 500 nM.
Take `CNc1cc(C)nc(Nc2cc3c(c(C4=CCNC(C)CC4)c2F)OCC3)n1` (single isomer, unassigned) [Compound 184]: the results for the IC50 on human EHMT1 982-1266 and on human EHMT2 913-1193 were 100 to 500 nM and 500 to 2000 nM, respectively.
The matching figures for `CNc1cc(C)nc(Nc2cc3c(c(C4=CCNC(C(F)F)CC4)c2F)OCC3)n1` (single isomer, unassigned) [Compound 354-a]: above 2000 nM and above 2000 nM.
The matching figures for `CNc1cc(C)nc(Nc2cc3c(c(C4=CCNC(C(F)F)CC4)c2F)OCC3)n1` (single isomer, unassigned) [Compound 354]: below 100 nM and 100 to 500 nM.
Taken in the same sequence, the figures for `CNc1cc(C)nc(Nc2cc3c(c(C4=CCNC(C)CC4)c2Cl)OCO3)n1` (single isomer, unassigned) [Compound 356-a] were 500 to 2000 nM and above 2000 nM.
For the molecule `CNc1cc(C)nc(Nc2cc3c(c(C4=CCNC(C)CC4)c2Cl)OCO3)n1` (single isomer, unassigned) [Compound 356], the concentration for half-maximal inhibition (IC50) at human EHMT1 982-1266 and on human EHMT2 913-1193 was below 100 nM throughout.
On to `CNc1cc(C)nc(Nc2cc3c(c(C4=CCNCC(O)C4)c2C)OCCC3)n1` (single isomer, unassigned) [Compound 360], for which the IC50 fell in the range of 100 to 500 nM at human EHMT1 982-1266 and 500 to 2000 nM on human EHMT2 913-1193.
As for `CNc1cc(C)nc(Nc2cc3c(c(C4=CCNC(C)CC4)c2Cl)OCCC3)n1` (single isomer, unassigned) [Compound 365], the IC50 on human EHMT1 982-1266 lay in the range of 100 to 500 nM; on human EHMT2 913-1193, 500 to 2000 nM.
The matching figures for `CNc1cc(C)nc(Nc2cc3c(c(C4=CCNCC(OC)C4)c2F)OCC3)n1` (single isomer, unassigned) [Compound 366-a]: 500 to 2000 nM and above 2000 nM.
Taken in the same sequence, the figures for `CNc1cc(C)nc(Nc2cc3c(c(C4=CCNCC(OC)C4)c2F)OCC3)n1` (single isomer, unassigned) [Compound 366] were 100 to 500 nM and 500 to 2000 nM.
The matching figures for `CNc1cc(C)nc(Nc2cc3c(c(C4=CCNC(C)CC4)c2C)OCCO3)n1` (single isomer, unassigned) [Compound 368]: 100 to 500 nM and 100 to 500 nM.
Regarding `CNc1cc(C)nc(Nc2cc3c(c(C4=CCNC(CF)CC4)c2F)OCC3)n1` (single isomer, unassigned) [Compound 371-a], the IC50 at human EHMT1 982-1266 and at human EHMT2 913-1193 was above 2000 nM throughout.
Consider `CNc1cc(C)nc(Nc2cc3c(c(C4=CCNC(CF)CC4)c2F)OCC3)n1` (single isomer, unassigned) [Compound 371], for which the IC50 on human EHMT1 982-1266 and at human EHMT2 913-1193 was below 100 nM each time.
Turning to `CNc1cc(C)nc(Nc2cc3c(c(C4=CCNC(C)CC4)c2Cl)OCC3)n1` (single isomer, unassigned) [Compound 374-a], the IC50 on human EHMT1 982-1266 and at human EHMT2 913-1193 was 500 to 2000 nM throughout.
In the case of `CNc1cc(C)nc(Nc2cc3c(c(C4=CCN(C)CC(O)C4)c2C)OCC3)n1` (single isomer, unassigned) [Compound 379], the IC50 at human EHMT1 982-1266 and on human EHMT2 913-1193 was below 100 nM throughout.
Turning to `CNc1cc(C)nc(Nc2cc3c(c(C4=CCNC(C)CC4)c2F)OCO3)n1` (single isomer, unassigned) [Compound 380], the IC50 on human EHMT1 982-1266 lay in the range of 100 to 500 nM; at human EHMT2 913-1193 it was 500 to 2000 nM.
Taken in the same sequence, the figures for `CNc1cc(C)nc(Nc2cc3c(c(C4=CCNC(C)CC4)c2C)OCC3)n1` (single isomer, unassigned) [Compound 383-a] were 500 to 2000 nM and 500 to 2000 nM.
The matching figures for `CNc1cc(C)nc(Nc2cc3c(c(C4=CCNC(C)CC4)c2C)OCCC3)n1` (single isomer, unassigned) [Compound 385-a]: above 2000 nM and above 2000 nM.
For the molecule `CNc1cc(C)nc(Nc2cc3c(c(C4=CCNC(C)CC4)c2C)OCCC3)n1` (single isomer, unassigned) [Compound 385], the IC50 at human EHMT1 982-1266 was below 100 nM; at human EHMT2 913-1193, 100 to 500 nM.
`CNc1cc(C)nc(Nc2cc3c(c(C4=CCN(C)CC(O)C4)c2C)OCCC3)n1` (single isomer, unassigned) [Compound 418]: the IC50 is below 100 nM at human EHMT1 982-1266 and 100 to 500 nM at human EHMT2 913-1193.
The matching figures for `CNc1cc(C)nc(Nc2cc3c(c(C4=CCN(C)CC(O)C4)c2C)OCCC3)n1` (single isomer, unassigned) [Compound 419]: 500 to 2000 nM and above 2000 nM.
On to `CNc1cc(C)nc(Nc2cc3c(c(C4=CCC(N)CC4)c2F)OCC3)n1` (single isomer, unassigned) [Compound 436], for which the IC50 is 500 to 2000 nM at human EHMT1 982-1266 and above 2000 nM on human EHMT2 913-1193.
Taken in the same sequence, the figures for `[2H]Cc1cc(NC([2H])([2H])[2H])nc(Nc2cc3c(c(C4=CCNCCC4)c2)OCCO3)n1` [Compound 216] were below 100 nM and below 100 nM.
For `CNc1cc(C)nc(Nc2cc3c(c([C@H]4CC[C@H](N)CC4)c2)OCCO3)n1` [Compound 337], the IC50 was 100 to 500 nM at human EHMT1 982-1266 and above 2000 nM on human EHMT2 913-1193.
